From patent US20210147900A1, “METHODS AND COMPOSITIONS FOR DETECTING BETA-HYDROXYBUTYRATE IN BIOLOGICAL FLUIDS” (F.A.T. Stats LLC, priority 2019, published 2021) come the findings set out here.

The nature of the series: Solubility / appearance of coenzyme Q with β-cyclodextrin in water or Tris/NaOH buffer. The series is classed as physicochemical. The settings on record: for Appearance: in water, 5 hours at 75° C. and 5 hours at 85° C. On the procedure: First, 0.107 grams of β-cyclodextrin was dissolved in 4.8 grams of the Tris/NaOH buffer solution (pH 8.7). This mixture this heated at 45° C. for 5 minutes and then 0.082 g of coenzyme Q0 was added. Heating was continued until coenzyme Q0 was no longer visible as a solid. The coenzyme Q0/β-cyclodextrin solution was used within 2 hours of making it. Alternatively, 0.0074 grams of coenzyme Q0 and 0.0481 grams of β-cyclodextrin was mixed with 1.2070 grams water. This mixture was heated at 50° C. for 20 minutes with stirring. […] This procedure results in a fully solubilized form of coenzyme Q0 which is optically transparent and has no visible particles of coenzyme Q0 in the mixture. It is important that the coenzyme Q0 mixture is fully soluble so that it may be mixed with other water-soluble ingredients and applied to a paper test strip for further reactions with biological solutes. If the coenzyme Q0/β-cyclodextrin mixture is not water soluble, it cannot provide a uniform distribution of reactions for the test for BHB in a biological fluid as disclosed herein.
The procedure for solubilizing coenzyme Q10 in U.S. Patent Application Publication No. US 2007/0202090 A1 was followed and results are listed below in Table 17. Coenzyme Q10 and β-cyclodextrin were combined with water in the following molar ratios of coenzyme Q10 to β-cyclodextrin: 1:1; 1:5; and 1:10. Each solution was heated for 5 hours at 75° C. and then an additional 5 hours at 85° C.

For the compound `COC1=C(OC)C(=O)C(C)=CC1=O` [coenzyme Q0, 2,3-dimethoxy-5-methyl-p-benzoquinone], where the note is “0.0074 g coenzyme Q0, 0.0481 g β-cyclodextrin, 1.2070 g water, 50° C. for 20 minutes with stirring”, the “Appearance of mixture with β-cyclodextrin in water” value is listed as “transparent solution with no visible particles”.
Regarding `COC1=C(OC)C(=O)C(C/C=C(\C)CC/C=C(\C)CC/C=C(\C)CC/C=C(\C)CC/C=C(\C)CC/C=C(\C)CC/C=C(\C)CC/C=C(\C)CC/C=C(\C)CCC=C(C)C)=C(C)C1=O` [coenzyme Q10], the Appearance result is listed as “not transparent;” (molar ratio coenzyme Q10 to β-cyclodextrin 1:1), “not transparent;” (molar ratio coenzyme Q10 to β-cyclodextrin 1:5) and “not transparent;” (molar ratio coenzyme Q10 to β-cyclodextrin 1:10). Further, the “Incorporation in basic buffer solution with β-cyclodextrin” value (same procedure as Example 2 (Tris/NaOH buffer pH 8.7, heating)) is reported as “could not be adequately incorporated”.
